Here are results for one molecule from US20250346606A1, “CAMPTOTHECIN COMPOUND, PREPARATION METHOD THEREFOR, AND APPLICATION THEREOF” (SICHUAN KELUN-BIOTECH BIOPHARMACEUTICAL CO., LTD., priority 2021, published 2025).

Each structure is given as a SMILES string.

Type in all cases: cell-based, Human
One assay relates to HT29 cells. The experiment in a line: Inhibitory effect of compounds on HT29 cell proliferation. Conditions: Homo sapiens, HT-29, 72 h, read-out: IC50, inhibitory activity on HT29 cell proliferation. In short, it runs like this:
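Adherent HT29 cells incubated with diluted compounds for 72 h; viability read by luminescence (Cell Counting-Lite 2.0, 10 min). Inhibition calculated against cell-free background and vehicle-treated cells; IC50 from four-parameter curve fit.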

The test system of a further assay is A549 cells. Nature of the assay: Inhibitory effect of compounds on A549 cell proliferation. To be noted: Homo sapiens, A549, 72 h, read-out: IC50, inhibitory activity on A549 cell proliferation. How it is done: (1) Cell plating: First, tumor cells A549 were cultured in the corresponding medium, then digested with trypsin, centrifuged and resuspended, and counted, and the cells were adjusted to an appropriate concentration for plating.
(§1) Co-incubation of the compound of the present disclosure and tumor cells: after the cells adhered to the wall, the medium was removed, and the diluted bioactive molecule (the compound of the present disclosure) was added to the wells of the above plate, and incubated for 72 h.
(§2) In vitro cell activity detection: After the incubation, 50 μL of Cell Counting-Lite™ 2.0 reagent (Vazyme/Novazyme) was added to each well, shaken and mixed well in the dark, reacted for 10 minutes, and then the detection was carried out with a microplate reader (manufacturer: BMG, Model: PHERAStar-FS) for reading. The background RLU was obtained by using cell-free medium (with Cell Counting-Lite™), and the vehicle RLU was obtained by using cell-containing medium (with Cell Counting-Lite™). Cell inhibition rate=1−(sample RLU−background RLU)/(solvent RLU−background RLU)×100%. According to the four-parameter model fitting curve, the half maximal inhibitory concentration (IC50) of the compound was calculated, and the detection results were shown in Table 4.

A further assay deals with SKOV-3 cells. Nature of the assay: Inhibitory effect of compounds on SKOV-3 cell proliferation. Conditions: Homo sapiens, SK-OV-3, 72 h, read-out: IC50, inhibitory activity on SKOV-3 cell proliferation. The procedure:
(1) Cell plating: First, tumor cells SKOV-3 were cultured in corresponding medium, then digested with trypsin, centrifuged, resuspended, and counted, and the cells were adjusted to an appropriate concentration for plating.
as §1
as §2, with “viability” for “activity”, “8.” for “4.”

Another assay relates to NCI-H358 cells. Nature of the assay: Inhibitory effect of compounds on NCI-H358 cell proliferation. Conditions: Homo sapiens, NCI-H358, 72 h, read-out: IC50, inhibitory activity on NCI-H358 cell proliferation, NCI-H358 human non-small cell lung cancer cells, 72 h incubation, Cell Counting-Lite 2.0. The essentials:
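Adherent NCI-H358 cells were exposed to compound for 72 h, then viability was read by luminescence (Cell Counting-Lite 2.0). Inhibition calculated from RLU relative to cell-free background and vehicle wells; IC50 from a four-parameter fit.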

A further assay deals with NCI-N87 cells. The experiment in a line: Inhibitory effect of compounds on NCI-N87 cell proliferation. Conditions: Homo sapiens, NCI-N87, 72 h, read-out: IC50, inhibitory activity on NCI-N87 cell proliferation, NCI-N87 human gastric cancer cells, 72 h incubation, Cell Counting-Lite 2.0. In short, it runs like this:
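Adherent NCI-N87 cells were exposed to compound dilutions for 72 h. Viability measured by Cell Counting-Lite 2.0 luminescence, with inhibition calculated against vehicle and cell-free background RLU. IC50 from four-parameter fit.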

Another assay deals with Hela cells. Nature of the assay: Inhibitory effect of compounds on Hela cell proliferation. Conditions: Homo sapiens, HeLa, 72 h, read-out: IC50, inhibitory activity on Hela cell proliferation. How it is done:
(1) Cell plating: First, tumor cells Hela were cultured in corresponding medium, then digested with trypsin, centrifuged, resuspended, and counted, and the cells were adjusted to an appropriate concentration for plating.
as §1
as §2, with “viability” for “activity”, “14.” for “4.”

The test system of another assay is HCC70 cells. The experiment in a line: Inhibitory effect of compounds on HCC70 cell proliferation. Conditions: Homo sapiens, HCC70, 72 h, read-out: IC50, inhibitory activity on HCC70 cell proliferation. How it is done:
(1) Cell plating: First, tumor cells HCC70 were cultured in corresponding medium, then digested with trypsin, centrifuged, resuspended, and counted, and the cells were adjusted to an appropriate concentration for plating.
as §1
as §2, with “viability” for “activity”, “16.” for “4.”

Consider `CC[C@@]1(O)C(=O)OCc2c1cc1n(c2=O)Cc2c-1nc1cc(Cl)c(C)c3c1c2[C@@H](NC(=O)C1(O)CC1)CC3` [Example 7 (2-20-A), N-((1S,9S)-5-chloro-9-ethyl-9-hydroxy-4-methyl-10,13-dioxo-2,3,9,10,13,15-hexahydro-1H,12H-benzo[de]pyrano[3′,4′:6,7]indolizino[1,2-b]quinolin-1-yl)-1-hydroxycyclopropane-1-carboxamide], for which the IC50 in the assay on HT29 cells came out at 1.29 nM; in the assay with A549 cells it was 8.14 nM; in the assay on SKOV-3 cells, 6.79 nM; with NCI-H358 cells, 18.6 nM; in the assay on NCI-N87 cells it was 4.54 nM; in the assay on Hela cells it was 11.2 nM. For the same molecule, the IC50 with HCC70 cells was 105 nM.
